Experimental data: a melting point compilation (Tetko et al.; mined from patent text by program, amines drawn as free bases though some values may be those of a salt)

First: CC(C)(CCc1noc(=O)[nH]1)c1ccc(C(=O)Nc2cn3cc(C(F)(F)F)ccc3n2)cc1
Second: Cc1ccc2c(NCc3ccc(NC(=O)c4ccc(Br)cc4)cc3)nc(Cl)nc2c1
The melting point of the first is lower: 268 to 270 °C for the first, 295 to 298 °C for the second.

First: CCS(=O)(=O)N(Cc1cccnc1)c1ccc(Cl)cc1
Second: CS(=O)(=O)N(CCc1ccccc1)Cc1cccnc1
The melting point of the first is higher: 104 to 106 °C for the first, 94 to 95 °C for the second.

First: Fc1ccc([C@H]2CC[C@H](N3CCC(Cc4cc(F)ccc4F)CC3)CC2)cc1
Second: CC(C)(C)OC(=O)N1CCC(NCc2cccc(NC(=O)c3ccc(F)cc3Cl)n2)CC1
The melting point of the first is higher: 80 to 81 °C for the first, 79.1 °C for the second.

First: CCOC(=O)c1cn(-c2cc(NC=O)c(F)cc2F)c2c(F)c(F)c(F)c(NCc3ccccc3)c2c1=O
Second: CCOC(=O)c1cn2c3c(c(F)c(F)c(F)c3c1=O)CCN2C
The melting point of the first is lower: 151 to 156 °C for the first, 236 to 240 °C for the second.

First: CC(=O)Nc1c(C(=O)c2ccccc2)[nH]c2cc(Cl)ccc12
Second: CCCc1c(C(C)=O)c2ccc(C(N)=O)cc2n1Cc1ccccc1Cl
The melting point of the first is higher: 212 to 213 °C for the first, 208 to 211 °C for the second.

First: C=CCC1c2ccccc2Cn2cc3c(c21)C(=O)c1ccccc1C3=O (configuration not stated)
Second: O=C(CCl)Nc1ccc2c(c1NC(=O)Cc1ccc(F)cc1)C(=O)c1ccccc1C2=O
The melting point of the first is lower: 159 to 160 °C for the first, 213 to 214 °C for the second.

First: NC(=O)c1ccc(CCC[N@]2C[C@@H]2c2ccccc2)s1
Second: Cc1cccc(C(=O)OC2CCN(Cc3ccccc3)CC2)c1
The melting point of the first is higher: 117 to 119 °C for the first, 45 to 46 °C for the second.

Compared with `COc1cc(C(=O)N[C@@H]2CCN(C)C2)ccc1Nc1ncc2c(n1)N(C1CCCCC1)CC(F)(F)C(=O)N2C`, `CCOCCn1c(C(=O)C2CCN(CCC3(c4ccccn4)CCN(C(=O)c4cc(OC)c(OC)c(OC)c4)C3)CC2)nc2ccccc21` (configuration not stated) is lower in melting point: 98 to 99 °C for the first, 50 to 55 °C for the second.

First: CN(C)C[C@@H]1C[C@H]1c1c[nH]c2ccc(C#N)cc12 (relative stereo)
Second: COC(=O)CCc1cc2cc(C#N)ccc2o1
The melting point of the first is higher: 120 to 121 °C for the first, 91 to 92 °C for the second.

First: CCCS(=O)c1ccc2[nH]c(NC(=O)OC)nc2c1 (configuration not stated)
Second: COc1cc(C)nc(NC(=O)NS(=O)(=O)c2ccccc2N)n1
The melting point of the first is higher: 215 to 216 °C for the first, 210 to 215 °C for the second.

First: NN1CCN(CC(O)c2c[nH]c3ccccc23)CC1 (configuration not stated)
Second: COc1ccccc1OCC(O)CN1CCCC(Cn2c(=O)[nH]c3ccccc32)C1 (configuration not stated)
The melting point of the first is higher: 174 to 177 °C for the first, 158 °C for the second.

First: N#Cc1nn(-c2c(Cl)cc(-c3c(F)c(F)nc(F)c3F)cc2Cl)c(N)c1SC(F)(F)F
Second: FC(F)(F)Sc1cc(-c2ccccc2)c(-c2ccccc2)[nH]1
The melting point of the first is higher: 100 to 104 °C for the first, 58 to 59 °C for the second.

First: CCNc1nc(SC)ncc1C=O
Second: CCOC(=O)c1cnc2c(F)c(F)ccc2c1
The melting point of the first is lower: 58 to 61 °C for the first, 118 °C for the second.

Compared with `CC1CC(=O)NN=C1c1ccc(NC(=O)C2CC2)cc1` (configuration not stated), `CCC(C#N)C(=O)Nc1ccc(C2=NNC(=O)CC2C)cc1` (configuration not stated) is lower in melting point: 267 to 268 °C for the first, 225 to 227 °C for the second.

First: CCOc1c(C)c(N2CCN(c3ccc(OC)c(C)c3)CC2)c(C)c2c1OC(C)C2 (configuration not stated)
Second: COc1cc(CN2CCN(c3cccc(C)c3Cl)CC2)cc(OC)c1OC
The melting point of the first is lower: 80 to 83 °C for the first, 112 to 113 °C for the second.

Compared with `CCN1CCN(c2ccnc(-c3nc(=O)c4ccccc4s3)c2)C1=O`, `CCOC(=O)CCCCCOc1ccc(-c2nc(=O)c3ccccc3s2)cn1` is lower in melting point: 212 to 213 °C for the first, 73.6 to 73.9 °C for the second.

`NNC(=O)c1ccc2occ(-c3cccc(OC(F)(F)F)c3)c2c1` and `Nc1cc(C(=O)c2cc3ccccc3o2)ccc1Cl` cannot be ordered by melting point: 137 to 138 °C for the first, 137 °C for the second.

Compared with `COC(=O)Cc1cn(Cc2ccccc2)nc1O`, `Cc1cc(Nc2ccccc2C(=O)O)n(C)n1` is higher in melting point: 118 to 119 °C for the first, 210 to 211 °C for the second.

First: CC(C)=CCCOc1c(-c2ccc(S(N)(=O)=O)cc2)cnn(-c2ccc(F)c(F)c2)c1=O
Second: Cc1cc(CNC(=O)c2nc3ccc(F)c(OCCc4ccc(C(=O)O)cc4)c3c(=O)[nH]2)ccc1F
The melting point of the first is lower: 70 to 73 °C for the first, 267 to 268 °C for the second.

First: CCCc1nc2c(N)nc3cc(OCC(=O)N4CCOCC4)ccc3c2s1
Second: COc1ccc(-c2n[nH]cc2C(=O)N2CCOCC2)cc1OC
The melting point of the first is higher: 200 to 203 °C for the first, 122 °C for the second.

First: O=C(N[C@H](Cc1cccc(OCC(F)(F)C(F)F)c1)[C@@H](O)c1ccc(F)cc1)c1ccc(F)c2ccccc12 (racemic)
Second: O=C(c1ccc(F)cc1F)N1Cc2cccnc2Nc2ccccc21
The melting point of the first is lower: 160 to 161 °C for the first, 161 to 163 °C for the second.

Compared with `COP(C)(=O)C1CC(c2ccccc2)=NO1` (configuration not stated), `O=Cc1cccc(OCCc2coc(-c3ccccc3)n2)c1` is lower in melting point: 72 to 74 °C for the first, 51 to 53 °C for the second.

`CCOC(=O)C1=C(C)N(C(C)=O)C(c2csc(C)n2)=NC1c1ccc(F)cc1` (configuration not stated) and `CCOC(=O)c1c(C)n(-c2ccccc2)c(C)c(C(=O)OCc2ccccc2)c1=O` cannot be ordered by melting point: 140 to 142 °C for the first, 142 °C for the second.

First: Cc1cc2c(cc1Br)OCC(C)(C)CC2(O)c1ccccn1 (configuration not stated)
Second: Cc1ccc(S(=O)(=O)OC2COc3ccc4ncccc4c3C2)cc1 (configuration not stated)
The melting point of the first is lower: 129 °C for the first, 168 to 170 °C for the second.

First: N#CC=Cc1ccc([N+](=O)[O-])cc1
Second: N#CCOc1ccc(O)c([N+](=O)[O-])c1
The melting point of the first is lower: 112 °C for the first, 113 to 114 °C for the second.

First: CNC(=O)Nc1sc2nc(C)ccc2c1C(=O)N1CCC(N2CCCC3(CCN(C(C)C)C3=O)C2)CC1 (configuration not stated)
Second: COc1nc(N2CCN(C(=O)c3ccccc3C(F)(F)F)CC2)ccc1C(=O)NCCC1CC1
The melting point of the first is higher: 195 to 198 °C for the first, 49 to 51 °C for the second.

Compared with `CCOc1cccc(NC(=O)Nc2ccc3c(c2)CCN(C(=O)Nc2ccc(OCCO)cc2Cl)C3)c1`, `COc1cc2c(cc1C(F)(F)F)N(C(=O)Nc1cccc(S(=O)(=O)Nc3cccnc3)c1)CC2` is higher in melting point: 148 to 150 °C for the first, greater than 215 °C for the second.

Compared with `CCCCCCCCCCCCc1ccc(S(=O)(=O)Nc2nnc(C(C)(C)C)s2)cc1`, `CCCCN(C(=O)CCc1ccc(OCCOC)cc1Oc1ncc(C(F)(F)F)cc1Cl)S(N)(=O)=O` is lower in melting point: 117 to 118 °C for the first, 102 to 103 °C for the second.

First: CC(C)Oc1ccc2c(c1)N(C)C(=O)N(c1ccc(Cl)cc1)S2(=O)=O
Second: COc1ccc(N2C(=O)C(OC(C)=O)C2c2ccccc2Cl)cc1 (configuration not stated)
The melting point of the first is higher: 157 to 159 °C for the first, 130 to 132 °C for the second.

First: N#Cc1cc(-c2ncccc2C(=O)O)ccc1OCCc1ccccc1[N+](=O)[O-]
Second: Cc1oc(-c2ccccc2)nc1CCc1nc(COc2cccc(CC(=O)O)c2)co1
The melting point of the first is higher: 216 to 217 °C for the first, 127 to 128 °C for the second.

First: COc1ccc2ccc(NC(=O)c3c[nH]c4c3C(=O)CCC4)nc2n1
Second: COc1ccc(C(=O)NC(=S)Nc2ccccc2C(N)=O)cc1
The melting point of the first is lower: 173 to 181 °C for the first, 193 to 196 °C for the second.

First: COC(=O)c1ccc(NC(=O)c2cc(C(C)C)c(C(C)C)s2)cc1O
Second: CCCC=Cc1c(C(C)C)nc(C(C)C)c(CO)c1-c1ccc(C)cc1
The melting point of the first is higher: 180 to 181 °C for the first, 72 to 75 °C for the second.

First: Nc1sc2c(c1C(=O)c1ccccc1)CCNC2
Second: O=C(CCc1cccc(Br)c1)c1cnc2sc3c(n12)CCCCC3
The melting point of the first is higher: 160 to 162 °C for the first, 77 to 79 °C for the second.

Compared with `CCOCCn1c(SC2CCN(C(=O)c3cc(C)cc(C)c3)C(Cc3ccccc3)C2)nc2ccccc21` (configuration not stated), `OCc1ccc(-c2c3ccccc3nn2Cc2ccccc2)cc1` is higher in melting point: 147 °C for the first, 148 to 149 °C for the second.

First: CC1(C)C2CC[C@]1(C)C(=O)C(C(=O)Nc1cc(Cl)cc(Cl)c1)C2=O (some centres not stated)
Second: CON1CCC2(CC1)NC(=O)C(Cl)(c1cc(C)ccc1C)C2=O (configuration not stated)
The melting point of the first is lower: 112 to 114 °C for the first, 142 to 144 °C for the second.

First: COC(=O)c1cccc(S(N)(=O)=O)c1I
Second: COC(=O)c1ncn2c1CN(C)C(=O)c1ccccc1-2
The melting point of the first is lower: 155 to 157 °C for the first, 212 to 214 °C for the second.

First: CC(=O)NC[C@H]1CN2C(=O)C[C@@H]2O1
Second: O=c1cc(CN2CCCC2)[nH]c(=O)[nH]1
The melting point of the first is lower: 82.5 to 84.5 °C for the first, 176 to 178 °C for the second.

First: COc1ccc2c(c1)C(=O)C(O)=C([N+](=O)[O-])C2=O
Second: COc1cc(O)ccc1C=CC(=O)CC(C)=O
The melting point of the first is higher: 152 to 155 °C for the first, 139 to 142 °C for the second.

Compared with `Cc1ccc2c(=O)n3ccsc3nc2c1`, `Cn1c(CC#N)cc(Cl)c1C(=O)c1ccc(Cl)cc1` is lower in melting point: 174 to 178 °C for the first, 139 to 142 °C for the second.

First: c1ccc(-c2nnc3c4c(c(OCc5ccccn5)nn23)CCCC4)cc1
Second: CCN1C(=O)c2cnc(-c3ccccc3)nc2N(C(=O)CN(C(C)C)C(C)C)c2ccccc21
The melting point of the first is higher: 194 °C for the first, 120 to 121 °C for the second.

Compared with `O=C1CN2CCOC2(c2ccccc2F)c2cc(I)ccc2N1CCO` (configuration not stated), `O=S1(=O)N=C2CCCN2c2ccc(Oc3cccc(-c4ccco4)c3)cc21` is higher in melting point: 160 to 165 °C for the first, 186 to 189 °C for the second.

First: O=C(CBr)Nc1cc(Cl)ccc1C(=O)O
Second: N#CN=C(Nc1cccnc1)NC(NC(=O)c1ccc(Cl)cc1)C(F)(F)F (configuration not stated)
The melting point of the first is higher: 156 to 158 °C for the first, 136 to 138 °C for the second.

First: ClCc1nc2sc3c(c2c(-c2ccc(Cl)cc2)c1Cl)CCN(Cc1ccccc1)C3
Second: Nc1ccc(S(=O)(=O)c2cc(-c3ccccc3)nc(N3CCCC3)c2)cc1
The melting point of the first is lower: 204 to 205 °C for the first, 255 to 258 °C for the second.

First: CCc1cn(C2CC(O)C(COC(c3ccccc3)(c3ccccc3)c3ccccc3)O2)c(=O)[nH]c1=O (configuration not stated)
Second: COc1ccc2[nH]cc(CC(=O)N3C[C@@H]4[C@H](C3)[C@@](O)(c3ccccc3OC)[C@H](O)CC4(c3ccccc3)c3ccccc3)c2c1 (racemic)
The melting point of the first is lower: 168 to 172 °C for the first, 204 to 206 °C for the second.

First: CNc1nc(F)c(OC(F)F)c(Cl)n1
Second: CN(OCc1nc2c(N)nc3ccccc3c2n1CC(C)(C)O)C(N)=O
The melting point of the first is lower: 57 to 61 °C for the first, 206 to 207 °C for the second.

Compared with `CCCN(C(=O)COc1c(Cl)cccc1Cl)C1CCc2c(ccc(O)c2O)C1` (configuration not stated), `CCOc1ccc(CC(CN2CC(=O)OC(=O)C2)N(CCN2CC(=O)OC(=O)C2)CC(=O)O)cc1` (configuration not stated) is higher in melting point: 157 to 159 °C for the first, 172 to 174 °C for the second.

Compared with `COC(=O)/C=C/c1ccc(CC(C)NCC(O)c2ccccc2F)cc1` (configuration not stated), `C#CCN(C(=O)c1ccccc1C(F)(F)F)S(=O)(=O)c1cccc(C)c1` is lower in melting point: 111 to 116 °C for the first, 81 to 85 °C for the second.

Compared with `CN(CC(=O)c1ccc(N(C)C)cc1)Cc1cc2c(=O)c(C(=O)NCc3ccc(Cl)cc3)cn(C)c2s1`, `Cc1ccc(Cc2cnc(NCCCCc3ncc([N+](=O)[O-])cc3C)[nH]c2=O)cn1` is lower in melting point: 162 °C for the first, 141 to 142 °C for the second.

With `COCc1ccc(/C=C/c2c(OC)cc3c(c2OC)C(C)(C)CCC3(C)C)cc1` the melting point was 66 to 68 °C.
